In brackets after ≈: the same amount, converted by molar mass. Like-named read-outs stand apart in the source and are kept apart here.
Key:
[1] = Cytotoxicity in MT-4 cells incubated without infection by HIV; type: cell-based; conditions: human; MT-4 cells without infection by HIV, 37° C., 5 days, MTT method; read-out: CC50 (compound concentration which causes death of 50% of the MT-4 cells)
Protocol: (§1) Virucidal test aqainst HIV:
(§2) In RPMI1640 culture medium containing 20 mM HEPES buffer solution, 10% bovine fetus serum, and 20 μg/mL gentamycin, 3×10^4 cells of MT-4 (which will be killed by infection with HIV) were infected with HIV at a rate of 0.02 HIV per cell. To the fractions of the culture, predetermined portions of a sample containing the thiadiazole derivative of the compound No. shown in Table 27 and 28 were added, and the culture fractions were incubated at 37° C. After incubation for 5 days, living cells were measured by the MTT method to derive the compound concentration (EC50) which is effective to protects 50% of the MT-4 cells from death by HIV. Separately, the MT-4 cells were incubated in the same manner without infection by HIV, and the compound concentration (CC50) which causes death of 50% of the MT-4 cells. The ratio of CC50 /EC50 is the selectivity index (S.I.).

[2] = tested on: HIV; test: Virucidal test against HIV (protection of HIV-infected MT-4 cells, MTT method); type: cell-based; conditions: for S.I. (selectivity index, ratio CC50/EC50): CC50/EC50, MT-4 cells; for EC50: Human immunodeficiency virus 1, MT4, 120 h, read-out: EC50 (compound concentration effective to protect 50% of the MT-4 cells from death by HIV)
Protocol: as §1, §2

[3] = MT-4 cells, 0.02 HIV per cell, 37° C., 5 days, MTT method

| Structure (SMILES) | CC50 at 120 h [1] | S.I. (selectivity index, ratio CC50/EC50) [2] | EC50 [2] | EC50 [2, 3] |
| --- | --- | --- | --- | --- |
| CN(C)C(=O)Oc1nsnc1-c1cc(N)ccc1Cl [Compound 21, N,N-Dimethyl [3-(5-amino-2-chlorophenyl)-1,2,5-thiadiazol-4-yl] CARBAMATE] | 36 µg/mL (≈ 121 µM) | 240 | 0.15 µg/mL (≈ 0.502 µM) | – |
| CCCN(C)C(=O)Oc1nsnc1-c1cc(N)ccc1Cl [Compound 22, N-Methyl-N-propyl [3-(5-amino-2-chlorophenyl)-1,2,5-thiadiazol-4-yl] carbamate] | 22 µg/mL (≈ 67.3 µM) | 1048 | 0.021 µg/mL (≈ 0.0643 µM) | – |
| CN(C)C(=O)Oc1nsnc1-c1c(Cl)ccc(N)c1Cl [Compound 70, N,N-dimethyl [3-(3-amino-2,6-dichlorophenyl)-1,2,5-thiadiazol-4-yl] carbamate] | 9.4 µg/mL (≈ 28.2 µM) | 362 | 0.026 µg/mL (≈ 0.078 µM) | – |
| CCCN(C)C(=O)Oc1nsnc1-c1c(Cl)ccc(N)c1Cl [Compound 71, N-Methyl-N-propyl [3-(3-amino-2,6-dichlorophenyl)-1,2,5-thiadiazol-4-yl] carbamate] | 4.7 µg/mL (≈ 13 µM) | 2350 | 0.002 µg/mL (≈ 0.00554 µM) | – |
| CCCN(C)C(=O)Oc1nsnc1-c1c(Cl)ccc(C#N)c1Cl [Compound 87, N-Methyl-N-propyl [3-(2,6-dichloro-3-cyanophenyl)-1,2,5-thiadiazol-4-yl] carbamate] | 23 µg/mL (≈ 62 µM) | 7667 | 0.003 µg/mL (≈ 0.00808 µM) | – |
| CCCN(C)C(=O)Oc1nsnc1-c1c(Cl)ccc(C(=O)OC)c1Cl [Compound 91, N-Methyl-N-propyl [3-(2,6-dichloro-3-methoxycarbonylphenyl)-1,2,5-thiadiazol-4-yl] carbamate] | 9.1 µg/mL (≈ 22.5 µM) | 144 | 0.063 µg/mL (≈ 0.156 µM) | – |
| CCCN(C)C(=O)Oc1nsnc1-c1c(Cl)ccc(C(N)=O)c1Cl [Compound 93, N-methyl-N-propyl [3-(3-carbamoyl-2,6-dichlorophenyl)-1,2,5-thiadiazol-4-yl] carbamate] | 65 µg/mL (≈ 167 µM) | 59 | 1.1 µg/mL (≈ 2.83 µM) | – |
| CCCN(C)C(=O)Oc1nsnc1-c1c(F)ccc(N)c1Cl [Compound 99, N-Methyl-N-propyl [3-(3-amino-2-chloro-6-fluorophenyl)-1,2,5-thiadiazole-4-yl] carbamate] | 22 µg/mL (≈ 63.8 µM) | 2750 | 0.008 µg/mL (≈ 0.0232 µM) | – |
| CN(C)C=Nc1nsnc1-c1c(Cl)cccc1Cl [Compound 127, N^1 -Dimethyl-N^2-[3-(2,6-dichlorophenyl)-1,2,5-thiadiazol-4-yl] formamidine] | 31 µg/mL (≈ 103 µM) | 21 | – | 1.5 µg/mL (≈ 4.98 µM) |
| CCCN(C)C=Nc1nsnc1-c1c(Cl)cccc1Cl [Compound 128, N^1-methyl-N^1-propyl-N^2-[3-(2,6-dichlorophenyl)-1,2,5-thiadiazol-4-yl]formamidine] | 9.2 µg/mL (≈ 27.9 µM) | 48 | – | 0.19 µg/mL (≈ 0.577 µM) |
| CCN(C=Nc1nsnc1-c1c(Cl)cccc1Cl)CC [Compound 130, N^1-diethyl-N^2 - [3-(2,6-dichlorophenyl)-1,2,5-thiadiazol-4-yl]formamidine] | 14 µg/mL (≈ 42.5 µM) | 1000 | – | 0.014 µg/mL (≈ 0.0425 µM) |
| CCN(CC)C(C)=Nc1nsnc1-c1c(Cl)cccc1Cl [Compound 131, N^1-diethyl-N^2-[3-(2,6-dichlorophenyl)-1,2,5-thiadiazol-4-yl]acetamidine] | 5.4 µg/mL (≈ 15.7 µM) | 19 | – | 0.29 µg/mL (≈ 0.845 µM) |
| CN(C)S(=O)(=O)Oc1nsnc1-c1c(Cl)cccc1Cl [Compound 138] | 9.9 µg/mL (≈ 27.9 µM) | 9 | – | 1.1 µg/mL (≈ 3.11 µM) |
| Clc1cccc(Cl)c1-c1nsnc1OCc1ccccn1 [Compound 145] | 2.7 µg/mL (≈ 7.98 µM) | 39 | – | 0.07 µg/mL (≈ 0.207 µM) |
| Clc1cccc(Cl)c1-c1nsnc1OCc1cccnc1 [Compound 146] | 1.9 µg/mL (≈ 5.62 µM) | 6 | – | 0.3 µg/mL (≈ 0.887 µM) |
| O=[N+]([O-])c1ccccc1COc1nsnc1-c1c(Cl)cccc1Cl [Compound 149] | 8.6 µg/mL (≈ 22.5 µM) | 5 | – | 1.7 µg/mL (≈ 4.45 µM) |
| CSCOc1nsnc1-c1c(Cl)cccc1Cl [Compound 155] | > 100 µg/mL | > 270 | – | 0.37 µg/mL (≈ 1.2 µM) |
| COCOc1nsnc1-c1c(Cl)cccc1Cl [Compound 156] | 43 µg/mL (≈ 148 µM) | 24 | – | 1.8 µg/mL (≈ 6.18 µM) |
| COCCOCOc1nsnc1-c1c(Cl)cccc1Cl [Compound 157] | 46 µg/mL (≈ 137 µM) | 128 | – | 0.36 µg/mL (≈ 1.07 µM) |
| COCCOc1nsnc1-c1c(Cl)cccc1Cl [Compound 159] | 11 µg/mL (≈ 36 µM) | 5 | – | 2.2 µg/mL (≈ 7.21 µM) |
| Clc1cccc(Cl)c1-c1nsnc1OCCBr [Compound 160, 3-(2-bromoethoxy)-4-(2,6-dichlorophenyl)-1,2,5-thiadiazole] | 4.8 µg/mL (≈ 13.6 µM) | 15 | – | 0.32 µg/mL (≈ 0.904 µM) |
| CCCN(C)CCOc1nsnc1-c1c(Cl)cccc1Cl [Compound 161, 3-(2,6-dichlorophenyl)-4-[2-(N-methyl-N-propylamino)ethoxy]-1,2,5-thiadiazole] | 8.3 µg/mL (≈ 24 µM) | 10 | – | 0.8 µg/mL (≈ 2.31 µM) |
| CCCN(C)C(=O)c1nsnc1-c1ccccc1Cl [Compound 195, N-methyl-N-propyl 4-(2-chlorophenyl)-1,2,5-thiadiazole-3-carboxamide] | 37 µg/mL (≈ 125 µM) | 25 | – | 1.5 µg/mL (≈ 5.07 µM) |
| CCCN(C)C(=O)Cc1nsnc1-c1ccccc1Cl [Compound 202, N-methyl-N-propyl [3-(2-chlorophenyl)-1,2,5-thiadiazol-4-yl]acetamide] | 18 µg/mL (≈ 58.1 µM) | 7 | – | 2.5 µg/mL (≈ 8.07 µM) |
| CN(CC#N)C(=O)Oc1nsnc1-c1c(Cl)cccc1Cl [Compound 218, N-(cyanomethyl)-N-methyl [3-(2,6-dichlorophenvl)-1,2,5-thiadiazol-4-yl] carbamate] | 64 µg/mL (≈ 186 µM) | 168 | 0.38 µg/mL (≈ 1.11 µM) | – |
| CN(CCC#N)C(=O)Oc1nsnc1-c1c(Cl)cccc1Cl [Compound 219, N-(2-cyanoethyl)-N-methyl [3-(2,6-dichlorophenyli-1,2,5-thiadiazol-4-yl] carbamate] | 46 µg/mL (≈ 129 µM) | 2556 | 0.018 µg/mL (≈ 0.0504 µM) | – |
| CN(CCO)C(=O)Oc1nsnc1-c1c(Cl)cccc1Cl [Compound 220, N-(2-Hydroxyethyl)-N-methyl [3-(2,6-dichlorophenyl)-1,2,5-thiadiazol-4-yl] carbamate] | 63 µg/mL (≈ 181 µM) | 18 | 3.5 µg/mL (≈ 10.1 µM) | – |
| CN(CCCC(=O)O)C(=O)Oc1nsnc1-c1c(Cl)cccc1Cl [Compound 222, N-(3-carboxypropyl)-N-methyl [3-(2,6-dichlorophenyl)-1,2,5-thiadiazol-4-yl] carbamate] | > 100 µg/mL | > 71 | 1.4 µg/mL (≈ 3.59 µM) | – |
| CN(CCC(N)=O)C(=O)Oc1nsnc1-c1c(Cl)cccc1Cl [Compound 223, N-(2-carbamoylethyl)-N-methyl [3-(2,6-dichlorophenyl)-1,2,5-thiadiazol-4-yl] carbamate] | > 100 µg/mL | > 38 | 2.6 µg/mL (≈ 6.93 µM) | – |
| CCOC(=O)CCN(C)C(=O)Oc1nsnc1-c1c(Cl)cccc1Cl [Compound 224, N-[2-(ethoxycarbonyl)ethyl]-N-methyl [3-(2,6-dichlorophenyl)-1,2,5-thiadiazol-4-yl] carbamate] | 50 µg/mL (≈ 124 µM) | 385 | 0.13 µg/mL (≈ 0.322 µM) | – |
